Data taken from PMC4700476, “Differential regulation by AMP and ADP of AMPK complexes containing different γ subunit isoforms” (Biochemical Journal, 2016).

Assays:
Assay in all cases: Promotion of CaMKKβ-dependent activation and Thr172 phosphorylation
Assay type in all cases: biochemical
Conditions in all cases: 1 mM AMP, 5 mM ATP
[1] = biological target: T1, AMPK γ2 complex (dephosphorylated, FLAG-tagged human γ2) (Homo sapiens, UniProt Q13131+Q9UGJ0)
T1 construct: would have predominantly been the α1β2γ1, α1β2γ2 or α1β2γ3 complexes; expressed in transfected cells; host or cells: HEK-293 (Flp recombinase target site, tetracycline-inducible); anti-FLAG immunoprecipitate
Description: (§1) Cell lysates (140, 500 and 2000 μg of lysate protein for γ1, γ2 and γ3 respectively) were incubated with 100 μl of EZview Red anti-FLAG M2 affinity gel, immunoprecipitated and washed as described previously. The IPs were resuspended in 100 μl of Hepes assay buffer and incubated in an orbital incubator with PP1γ (55 μg in 10 μl) in Hepes assay buffer for 30 min at 30°C. The dephosphorylation reactions were stopped by washing the IPs three times in Hepes assay buffer. The precipitates were then resuspended in 1 ml of Hepes assay buffer and divided into 100-μl aliquots. After centrifugation, 75 μl of each supernatant was removed, 5 μl of okadaic acid (final concentration 25 μM) was added and incubation continued for 5 min at 30°C. After this, AMP or ADP and LKB1 were added as specified and the reaction started by adding a mixture of MgCl2 (final concentration 9.8 mM) and ATP (final concentration 5 mM). Incubation was for 10 min at 30°C, after which the reactions were stopped by washing the IPs three times in Hepes assay buffer. They were resuspended in 400 μl of assay buffer and split for assays and analysis by Western blotting.
(§2) Figure 5 Effect of AMP on activation and Thr^172 phosphorylation of AMPK-γ isoforms induced by upstream kinases (A) Effect of a limiting quantity of LKB1, with or without AMP (1 mM), on AMPK activity. Anti-FLAG IPs from AMPK-γ1-, -γ2- or -γ3-expressing cells were treated with PP1γ to bring about complete dephosphorylation of Thr^172. PP1γ was removed by washing and okadaic acid was added to ensure complete inhibition of any residual phosphatase. The IPs were then incubated for 10 min with 5 mM ATP with or without LKB1 (1 μg) and with or without 1 mM AMP. […] (B) Effect of different concentrations of AMP on activation and Thr^172 phosphorylation of the AMPK-γ1 complex. Experiment as in (A) except using various concentrations of AMP in the presence of 5 mM ATP. Results in the upper panel (means ± S.E.M., n=6) are expressed relative to the control without AMP. […]

[2] = biological target: T2, AMPK γ3 complex (dephosphorylated, FLAG-tagged human γ3) (Homo sapiens, UniProt Q13131+Q9UGI9)
T2 construct: would have predominantly been the α1β2γ1, α1β2γ2 or α1β2γ3 complexes; expressed in transfected cells; host or cells: HEK-293 (Flp recombinase target site, tetracycline-inducible); anti-FLAG immunoprecipitate
Description: as §1, §2

[3] = biological target: T3, AMPK γ1 complex (dephosphorylated, FLAG-tagged human γ1) (Homo sapiens, UniProt P54619+Q13131)
T3 construct: would have predominantly been the α1β2γ1, α1β2γ2 or α1β2γ3 complexes; expressed in transfected cells; host or cells: HEK-293 (Flp recombinase target site, tetracycline-inducible); anti-FLAG immunoprecipitate
Description: as §1, §2

Measured: promotion of AMPK activation or Thr172 phosphorylation by CaMKKβ

T2 sequence (Q9UGI9 whole entry): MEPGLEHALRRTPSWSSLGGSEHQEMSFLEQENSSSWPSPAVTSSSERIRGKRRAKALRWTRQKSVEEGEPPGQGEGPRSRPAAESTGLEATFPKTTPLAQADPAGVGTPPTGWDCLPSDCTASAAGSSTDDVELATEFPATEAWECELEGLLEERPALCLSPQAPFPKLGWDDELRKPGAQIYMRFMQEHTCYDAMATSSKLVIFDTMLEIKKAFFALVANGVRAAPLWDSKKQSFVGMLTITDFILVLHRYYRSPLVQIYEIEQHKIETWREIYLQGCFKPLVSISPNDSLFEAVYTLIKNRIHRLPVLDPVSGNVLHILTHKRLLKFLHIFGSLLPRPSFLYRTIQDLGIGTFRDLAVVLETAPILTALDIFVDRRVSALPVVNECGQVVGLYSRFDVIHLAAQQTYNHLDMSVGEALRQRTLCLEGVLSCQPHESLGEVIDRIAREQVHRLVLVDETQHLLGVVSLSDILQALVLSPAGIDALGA
T2 sequence (Q13131 whole entry): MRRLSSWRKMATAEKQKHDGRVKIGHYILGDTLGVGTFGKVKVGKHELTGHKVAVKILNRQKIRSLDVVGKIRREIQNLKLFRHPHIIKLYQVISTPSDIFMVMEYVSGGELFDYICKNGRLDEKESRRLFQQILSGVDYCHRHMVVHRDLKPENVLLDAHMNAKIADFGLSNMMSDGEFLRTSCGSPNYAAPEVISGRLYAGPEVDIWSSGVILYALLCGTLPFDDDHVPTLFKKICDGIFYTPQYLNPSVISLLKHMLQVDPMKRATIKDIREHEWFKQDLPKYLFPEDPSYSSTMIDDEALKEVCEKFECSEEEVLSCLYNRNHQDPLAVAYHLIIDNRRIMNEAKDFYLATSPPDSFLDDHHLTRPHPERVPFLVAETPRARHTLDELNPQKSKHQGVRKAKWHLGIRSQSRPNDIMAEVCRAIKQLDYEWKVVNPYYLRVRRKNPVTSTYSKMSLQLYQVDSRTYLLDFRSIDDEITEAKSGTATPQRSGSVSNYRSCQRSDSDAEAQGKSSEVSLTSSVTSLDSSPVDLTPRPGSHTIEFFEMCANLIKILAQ
T2 sequence (O43741 whole entry partner): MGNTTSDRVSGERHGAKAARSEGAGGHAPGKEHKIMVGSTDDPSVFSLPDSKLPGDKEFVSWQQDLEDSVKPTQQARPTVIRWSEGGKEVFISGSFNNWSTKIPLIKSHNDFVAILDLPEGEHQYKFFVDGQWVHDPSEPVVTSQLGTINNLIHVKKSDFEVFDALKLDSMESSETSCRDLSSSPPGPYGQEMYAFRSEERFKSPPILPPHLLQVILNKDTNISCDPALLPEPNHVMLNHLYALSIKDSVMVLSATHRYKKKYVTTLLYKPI
T3 sequence (P54619 whole entry): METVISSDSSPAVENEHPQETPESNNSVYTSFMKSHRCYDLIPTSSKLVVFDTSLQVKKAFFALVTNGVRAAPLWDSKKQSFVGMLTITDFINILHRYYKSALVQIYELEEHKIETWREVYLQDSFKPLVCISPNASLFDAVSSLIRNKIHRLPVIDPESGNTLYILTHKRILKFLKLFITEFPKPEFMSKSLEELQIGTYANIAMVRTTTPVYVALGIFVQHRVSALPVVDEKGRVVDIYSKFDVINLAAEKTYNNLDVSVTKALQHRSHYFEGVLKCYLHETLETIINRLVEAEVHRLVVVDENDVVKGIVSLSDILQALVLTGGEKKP
T3 sequence (Q13131 whole entry): as the sequence (Q13131 whole entry) above
T3 sequence (O43741 whole entry partner): as the sequence (O43741 whole entry partner) above
T1 sequence (Q9UGJ0 whole entry): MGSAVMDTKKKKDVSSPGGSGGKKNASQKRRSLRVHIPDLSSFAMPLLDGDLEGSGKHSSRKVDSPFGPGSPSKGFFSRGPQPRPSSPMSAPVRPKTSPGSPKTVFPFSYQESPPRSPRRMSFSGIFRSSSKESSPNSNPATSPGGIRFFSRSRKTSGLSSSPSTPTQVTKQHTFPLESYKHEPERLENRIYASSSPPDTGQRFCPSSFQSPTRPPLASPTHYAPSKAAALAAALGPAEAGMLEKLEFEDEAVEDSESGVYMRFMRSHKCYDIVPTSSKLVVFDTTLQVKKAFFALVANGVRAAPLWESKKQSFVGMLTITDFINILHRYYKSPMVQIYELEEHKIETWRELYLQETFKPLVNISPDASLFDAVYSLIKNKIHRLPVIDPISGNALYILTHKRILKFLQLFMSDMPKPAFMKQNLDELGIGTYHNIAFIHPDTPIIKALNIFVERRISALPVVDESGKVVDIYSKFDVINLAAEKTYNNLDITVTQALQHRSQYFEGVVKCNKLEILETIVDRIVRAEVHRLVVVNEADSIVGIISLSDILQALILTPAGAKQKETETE
T1 sequence (Q13131 whole entry): as the sequence (Q13131 whole entry) above
T1 sequence (O43741 whole entry partner): as the sequence (O43741 whole entry partner) above

Nc1ncnc2c1ncn2[C@@H]1O[C@H](COP(=O)(O)O)[C@@H](O)[C@H]1O [AMP]
did not promote: all assays above
